This is an account of results in patent US20240325274A1, “SUPRAMOLECULAR AMINO ACID OR SALT THEREOF, AND PREPARATION METHOD THEREFOR AND APPLICATION THEREOF” (SUZHOU OULIT BIOPHARM CO., LTD., priority 2021, published 2024).

Data set [1] can be described thus: Detergency evaluation: color cosmetics on arms of 5 subjects. The arrangement: key: 5 denotes the best; 3 denotes moderate; 1 denotes the worst. The following applies: 1 g of 4% aqueous solution with 0.54% sodium hydroxide; graded by 5 subjects. From the text: (§1) Three sets of color cosmetics (lipstick+eyeliner) were applied to the arms of 5 subjects with similar areas and thicknesses. The cosmetics were washed with the aqueous solutions in Table 6 (1 g of each) and then rinsed with tap water (the detergency was graded by the 5 subjects comprehensively).

Data set [2] can be described thus: pH, appearance and smell of neutralized aqueous solutions. The data set is classed as physicochemical. The settings on record: 4% in water with 0.54% sodium hydroxide (Table 6). As to the method:
as §1
The preparation procedures are as follows: Two 500-g beakers were weighed on an electronic balance, and the weights of the beakers were recorded; a proper amount of deionized water was weighed and added to the beakers according to the formula, and the beakers were heated to 75-80° C. in a water bath. The temperature of the water in the beaker was measured by a thermometer. […] At the start of the stirring, a proper amount of arginine was added to beaker (1) and a proper amount of 10% aqueous sodium hydroxide solution was added to beaker (2). The mixtures were stirred for 1 min. The temperature of the beakers (1) and (2) was reduced to 25° C. by running tap water. The evaporated water in the two beakers in the preparation process was compensated by cooled deionized water to 100% on an electronic balance. The pH of the products in the beaker (1) and (2) was measured, the appearance was observed, and the smell was confirmed.

The nature of data set [3]: Qualitative household application test. The following applies: 12% aqueous solution of sodium salt.
Description: For the surface of the electric rice cookers, especially the sticky bottoms, the greasy stains on the surface were wiped several times by using rags or paper towels soaked in the solutions and then wiped by using a clean cloth.
The conditions of data set [4]: cloths soaked in 5 mL stock solution for 2 min, washed with water, aired. As to the method: A 10% aqueous sodium hydroxide solution was added to neutralize the mixture to pH 6-7. The volume of the aqueous solution was brought to 100 mL. Cotton cloths of 10 square centimeters with peculiar smell (smell, engine oil smell, odor, etc.) were soaked in 5 mL of stock solution for 2 min, taken out, washed with water, and dried by airing.

The procedure of data set [5]: Two 100-g aliquots of bok choy pre-sprayed with pesticides methamidophos and acephate were taken. One was directly soaked in 1 L of clean water and detected for the pesticide residues, denoted as “before washing”. […] The procedures are as follows:
A 10% aqueous sodium hydroxide solution was added to neutralize the mixture to pH 6-7. The volume of the aqueous solution was brought to 100 mL. The second 100-g aliquot of bok choy pre-sprayed with pesticides methamidophos and acephate was shredded, soaked in 5 mL of the stock solution for 2 min, washed with 500 mL of clean water, and detected for the pesticide residues.

Data set [6] deals with S. aureus (ATCC 6538). The following applies: 10 g in 100 mL neutralized with NaOH to pH 6-7. As to the method: (§2) A 10% aqueous sodium hydroxide solution was added to neutralize the mixture to pH 6-7. The volume of the aqueous solution was brought to 100 mL. Fruits pre-inoculated with common microorganisms such as Staphylococcus aureus, Escherichia coli, Pseudomonas aeruginosa, Candida albicans, and the like were soaked in 5 mL of the stock solution (the solution neutralized by sodium hydroxide) for a certain period of time, and washed with clean water. The microorganism residues on the fruits were determined.

Data set [7] concerns E. coli (8099). As to the method: as §2
The subject of data set [8] is C. albicans (ATCC 10231). The settings on record: 10 g in 100 mL neutralized with NaOH to pH 6-7. As to the method:
as §2

`CCCCCCCCCCCC(=O)N[C@@H](C)C(=O)O` [Comparative Example 1, N-lauroyl-L-alanine]: the Detergency in data set [1] is on record as 3. Moreover, in data set [2], the Appearance entry was “Transparent” and the pH value came out at 8.07.
The compound `CCCCCCCCCCCC(=O)N[C@@H](C)C(=O)O` [Comparative Example 2, N-lauroyl-L-alanine] displayed a Detergency in data set [1] of 1. Also, in data set [2], the Appearance result is recorded as “Transparent” and the pH value stood at 6.56.
The compound “N-lauroyl-L-alanine supramolecule [Example 1]” returned a Detergency in data set [1] of 5. Moreover, in data set [3], the “Detergency on surfaces of cooking benches and kitchen hoods” value is “excellent detergency”. Besides, the “Deodorization effect on cotton cloths” value in data set [4] is reported as “the smells on the cotton cloths were completely eliminated”. In data set [5] (2 min of treatment), the “Acephate, Percentage removal, %” value was 86.37% and the “Methamidophos, Percentage removal, %” value amounted to 76.19%. Further, the “Methamidophos residue, After cleaning” value in data set [5] (bok choy soaked in 5 mL stock solution for 2 min, washed with 500 mL clean water, before washing 16.42 mg/kg) is listed as 3.91 mg/kg. Besides, the “Acephate residue, After cleaning” value in data set [5] (bok choy soaked in 5 mL stock solution for 2 min, washed with 500 mL clean water, before washing 37.57 mg/kg) is 5.12 mg/kg. Further, the “Inhibition of S. aureus (ATCC 6538), % (after 2 minutes)” value in data set [6] (after 2 minutes) is given as 100%. In data set [6] (after 5 minutes), the “Inhibition of S. aureus (ATCC 6538), % (after 5 minutes)” value turned out to be 100%. Besides, in data set [7] (after 2 minutes, 10 g in 100 mL neutralized with NaOH to pH 6-7, fruits soaked in 5 mL stock solution), the “Inhibition of E. coli (8099), % (after 2 minutes)” value is 98.5%. In data set [7] (after 5 minutes, 10 g in 100 mL neutralized with NaOH to pH 6-7), the “Inhibition of E. coli (8099), % (after 5 minutes)” value is 100%. In addition, in data set [8], the “Inhibition of C. albicans (ATCC 10231), % (after 5 minutes)” value came to 100%.
